Among the data in PubChem BioAssay (NCI) are TGI and GI50 values, retold here.

Some test systems named below: EKVX NSCLC; HL-60(TB) leukemia; KM12 colon; MCF7 breast; SF-268 CNS; SK-MEL-28 melanoma; SR leukemia; SW-620 colon; TK-10 renal; HOP-18 NSCLC; LXFL 529 NSCLC.
What all share (assay): DTP human tumour cell line panel, 48 h

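A five-concentration, 48-hour dose response in 96-well plates underlies each endpoint, interpolated linearly between surrounding concentrations. Abbreviation: GI50, concentration required for 50% inhibition of growth. The concentration for full growth arrest is given as TGI.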 Bounds are passed on as bounds.

On to `Cc1cccc(/C=N/NC(=S)NCc2ccccn2)n1`, for which the TGI in the assay with EKVX NSCLC was more than 100 µM; in the assay with HL-60(TB) leukemia, more than 100 µM; in the assay with KM12 colon, more than 100 µM; in the assay on MCF7 breast, more than 100 µM; in the assay with SF-268 CNS, more than 93 µM; with SK-MEL-28 melanoma it was more than 100 µM. Moreover, the TGI in the assay with SR leukemia, with SW-620 colon and with TK-10 renal was more than 100 µM throughout.
`COC(=O)C1Cc2ccc(C)cc2C1=O` (configuration not stated): the TGI with EKVX NSCLC, in the assay on HL-60(TB) leukemia, in the assay on KM12 colon, with MCF7 breast, in the assay on SF-268 CNS and in the assay on SK-MEL-28 melanoma was more than 100 µM each time. Further, the TGI with SR leukemia, in the assay on SW-620 colon and in the assay on TK-10 renal was more than 100 µM in each case.
On to `COc1ccc(NC(=O)CC(=O)n2nc(C)c(N=Nc3ccc(C)c(C)c3)c2C)cc1`, for which the TGI in the assay with EKVX NSCLC is 52 µM; with HL-60(TB) leukemia it was more than 100 µM; with KM12 colon, more than 100 µM; in the assay with MCF7 breast it was more than 100 µM; in the assay with SF-268 CNS, more than 100 µM; in the assay on SK-MEL-28 melanoma, more than 100 µM. Moreover, the TGI with SR leukemia, in the assay with SW-620 colon and in the assay with TK-10 renal was more than 100 µM throughout.
Turning to `COC(=O)c1ccc2c(c1)CC1(C2)Cc2cc3c(c(C(=O)OC)c2C1)CCCC3` (configuration not stated), the TGI with EKVX NSCLC, in the assay with HL-60(TB) leukemia, with KM12 colon, in the assay with MCF7 breast, in the assay with SF-268 CNS and in the assay with SK-MEL-28 melanoma was more than 100 µM throughout. For the same compound, the TGI in the assay on SR leukemia, in the assay with SW-620 colon and in the assay with TK-10 renal was more than 100 µM each time.
As for `O=C(O)C(Cc1ccc2c(c1)CCC2)(Cc1ccc2c(c1)CCC2)C(=O)O`, the TGI in the assay with EKVX NSCLC, in the assay with HL-60(TB) leukemia, in the assay on KM12 colon, in the assay with MCF7 breast, with SF-268 CNS and in the assay with SK-MEL-28 melanoma was more than 100 µM throughout. Further, the TGI in the assay with SR leukemia, in the assay on SW-620 colon and in the assay on TK-10 renal was more than 100 µM in each case.
Regarding `Cc1nc(-c2ccccc2)c(C)n2c1nc1ccccc12`, the TGI in the assay with EKVX NSCLC is more than 100 µM; in the assay with HL-60(TB) leukemia, 44.4 µM; with KM12 colon, more than 100 µM; in the assay on MCF7 breast it was 86.1 µM; in the assay on SF-268 CNS, 98.7 µM; with SK-MEL-28 melanoma, more than 100 µM. In addition, the TGI was 56.2 µM in the assay with SR leukemia, more than 100 µM with SW-620 colon and 84 µM in the assay with TK-10 renal.
For `OC1c2ccccc2[C@@H]2[C@H]1[C@@H](c1ccccc1)C1(Cc3ccccc3C1O)[C@H]2c1ccccc1` (some centres not stated), the TGI worked out at 19.2 µM with EKVX NSCLC; 4.47 µM in the assay with HL-60(TB) leukemia; 8.25 µM with KM12 colon; 4.7 µM in the assay with MCF7 breast; 24.1 µM in the assay with SF-268 CNS; 22.1 µM with SK-MEL-28 melanoma. For the same compound, the TGI in the assay on SR leukemia was 4.49 µM; in the assay with SW-620 colon it was 17.4 µM; with TK-10 renal it was 29.7 µM.
For the compound `COc1ccc(/C=C2\CN(C(=O)CCN3CCC(=NO)CC3)C/C(=C\c3ccc(OC)cc3)C2=O)cc1`, the GI50 in the assay on EKVX NSCLC is 4.04 µM; with HL-60(TB) leukemia, 2.8 µM; in the assay with KM12 colon, 1.74 µM; in the assay on MCF7 breast it was 0.619 µM; in the assay on SF-268 CNS, 2.84 µM; in the assay on SK-MEL-28 melanoma it was 2 µM. Further, the GI50 with SR leukemia is 0.616 µM; in the assay with SW-620 colon, 1.39 µM; in the assay with TK-10 renal it was 2.86 µM. Also, the TGI came out at 17.6 µM with EKVX NSCLC; 8.27 µM with HL-60(TB) leukemia; 3.71 µM in the assay on KM12 colon; 4.86 µM with MCF7 breast; 4.17 µM in the assay with SK-MEL-28 melanoma; 29.1 µM with SR leukemia. For the same compound, the TGI is 3.14 µM in the assay with SW-620 colon and 10.4 µM in the assay on TK-10 renal.
Regarding `COC(=O)C1Cc2c([nH]c3ccccc23)C(c2cccc(O)c2)N1` (configuration not stated), the TGI in the assay on EKVX NSCLC was more than 100 µM; in the assay with HL-60(TB) leukemia, 48.2 µM; in the assay on KM12 colon, more than 100 µM; in the assay on MCF7 breast, more than 100 µM; with SF-268 CNS, more than 100 µM; in the assay on SK-MEL-28 melanoma it was 73.4 µM. Besides, the TGI is 76.1 µM with SR leukemia, 60.8 µM in the assay with SW-620 colon and more than 100 µM in the assay with TK-10 renal.
Regarding `O=C1Nc2cccc3ncn(c23)C2=C1CCCC2`, the TGI in the assay with EKVX NSCLC is more than 100 µM; in the assay with HL-60(TB) leukemia, more than 100 µM; with HOP-18 NSCLC, 83.8 µM; with KM12 colon, more than 100 µM; in the assay with LXFL 529 NSCLC, more than 100 µM; in the assay with SF-268 CNS it was more than 100 µM. Further, the TGI in the assay on SK-MEL-28 melanoma, with SR leukemia, with SW-620 colon and in the assay with TK-10 renal was more than 100 µM throughout.
For the compound `COc1cc2c(cc1OC)C1Cc3ccccc3CCN1CC2` (configuration not stated), the TGI with EKVX NSCLC, with HL-60(TB) leukemia, with KM12 colon, in the assay on MCF7 breast, in the assay with SF-268 CNS and in the assay with SK-MEL-28 melanoma was more than 100 µM throughout. The TGI in the assay with SR leukemia, in the assay on SW-620 colon and in the assay with TK-10 renal was more than 100 µM throughout.
With `CC(C)Nc1[nH]c(C(=O)c2ccccc2)c(N)c1C(=S)Nc1ccccc1`, the TGI in the assay on EKVX NSCLC is more than 100 µM; in the assay on HL-60(TB) leukemia it was more than 100 µM; in the assay on KM12 colon it was more than 100 µM; in the assay with MCF7 breast, more than 100 µM; with SF-268 CNS it was more than 100 µM; with SK-MEL-28 melanoma, 35.1 µM. For the same compound, the TGI in the assay on SR leukemia, in the assay with SW-620 colon and in the assay on TK-10 renal was more than 100 µM in each case.

The TGI is the concentration giving total growth inhibition. The low end stands for greater sensitivity of the cells, the high end for lower sensitivity of the cells. The GI50 is the concentration giving 50% growth inhibition.
